Laboratory results: US20200039939A1, “QUINOLINE AMINES USEFUL AS CYTOPROTECTIVE AGENTS” (priority 2015, published 2020)

Experiments:
CSM14.1 neuronal cells = test: Cell survival assay (thapsigargin-treated CSM14.1 neuronal cells, CELLTITER-GLO); type: cell-based; conditions: 2 hrs compound pre-incubation, about 15 μM thapsigargin, overnight, luminescence
Description: CSM14.1 neuronal cells were maintained in Complete Medium at 32° C.; wherein the Complete Medium contained Dulbecco's modified eagle medium (DMEM) with 10% fetal bovine serum (FSB), 1% L-glutamine, 100 IU/mL penicillin, and 100 μg/mL streptomycin. The cells were recovered from cultures by trypsinization and then seeded in 384 well plates (Greiner #781098) at a concentration of 1,000 cells/well in 20 μL of DMEM Assay Medium, wherein the DMEM Assay Medium contained 2% FBS, 100 IU/mL penicillin, and 100 μg/mL streptomycin. Seeding was performed using a MultiDrop Combi reagent broadcaster. The plates were incubated overnight at 32° C. A test compound was prepared by 2-fold serial dilution in 100% DMSO using a BIOMEK® 2000 liquid handler (Beckman Coulter). A dose-response curve containing 10 concentrations of the test compound was obtained. Using a BIOMEK® FX liquid handler (Beckman Coulter), 2.5 μL of the test compound was transferred from the 100% DMSO serial dilution plate to an intermediate plate containing 47.5 μL of DMEM Assay Medium containing 2% FBS, 100 IU/mL penicillin, and 100 μg/mL streptomycin and mixed. To reduce or eliminate the interference from the compound's precipitation, 6 μL of the diluted compound was immediately transferred to the assay plate to achieve a high compound concentration of 100 µM in 99% DMEM Assay Medium and 1% DMSO. After the assay plates were incubated for 2 hrs, 4 μL of 112.5 μM thapsigargin (TG) (DMSO stock diluted into Assay TC Medium) was dispensed into each testing well with a MultiDrop Combi reagent broadcaster for a final concentration of about 15 μM TG. The tissue culture media (4 μL) containing vehicle only was transferred manually to each control cell using a 16 channel electronic pipette. After the plates were incubated overnight (about 16 to 24 hrs), CELLTITER-GLO® (Promega) (16 μL) was added to all wells and luminescence was measured. High luminescence indicates cell survival. The biological results are summarized in Table 1 where A represents a cell viability EC50 less than 10 μM and B represents a value greater than 10 μM and less than 20 μM.

Human SH-SY5Y cells = test: Cell rescue assay: protection against amyloid (AB1-42)-induced cell toxicity; type: cell-based; conditions: 96 h, 7.5 uM compound (final), AB1-42 at 10 uM, 4 days, OD 490 nm, read-out: Cell Survival % (cell rescue)
Description: Protection against 1-amyloid-induced cell toxicity. Chonpathompikunlert et al. Eu. J. Pharmacol. 2011, 650, 544-549. Human SH-SY5Y cells are suspended in media containing 2% FBS and 2× Gentamicin. Transfer 100 ul/well culture to 96-well plate (20,000 cells/well; passage #5) and incubate overnight. Prepare compound samples at 30 uM. Add 50 ul of the samples to the cells [[…]] and incubate 3 hours. Make stock of 40 uM AB1-42 peptide in assay media. Transfer 50 ul/well to cells/compounds in assay plate. The final assay volume is 200 ul/well, containing 2% FBS, 2× Gentamicin, 7.5 uM compound and AB1-42 at 10 uM. Incubate for 4 days then add 20 ul of Promega Substrate Cell Titer 96 Aqueous One Solution Reagent to each well. Incubate 37° C. and read OD at 490 nm. The results are summarized in Table 3, where A represents a value greater than 40% cell rescue, B represents a value greater than 10% and less than or equal to 40% cell rescue, and C represents a value greater than 1% and less than or equal to 10% cell rescue.

[1] = tested on: Human embryonic kidney (HEK293) cells / mouse neuroblastoma (N2a) cells; test: Cell rescue assay: protection against thapsigargin (TG)-induced cell-death (ALAMARBLUE); type: cell-based; conditions: compound 20 μM, 2 hrs before thapsigargin (15 μM HEK293, 1 μM N2a), 24 hrs, viability as % RFU of control, read-out: Cell Survival %
Description: Protection against Thapsigargin (TG)-induced Cell-death. Human embryonic kidney (HEK293) cells were grown in Dulbecco's Modified Eagle's Medium (DMEM) with 10% FBS and 1% antibiotic antimycotic solution (ABAM). Mouse neuroblastoma (N2a) cells were grown in 1:1 DMEM:OPTI-MEM® with 5% FBS and 1% ABAM. All cells were grown in 10% CO2 in a humidified environment of the incubator. Cells grown in 96-well plates were exposed to a test compound (20 μM) for 2 hrs before addition of thapsigargin (15 μM for HEK293 cells and 1 μM for N2a cells) to induce ER stress. After incubation in cell-culture incubator for 24 hrs, ALAMARBLUE® regent (10% v/v) was added to the wells. Fluorescence reading was taken 2 hrs after the addition of the ALAMARBLUE® regent. Cell-viability was calculated as a percentage of relative fluorescence unit (RFU) compared to control. […] The biological results are summarized in Table 2, where each compound was tested at 20 μM and where A represents a viability greater than 50%, B represents a viability greater than 10% and less than 50%, C represents a value below 10%.

SERCA = molecular target: T1, SERCA (Homo sapiens, UniProt P16615); test: Ca-ATPase assay (NADH-linked, enzyme-coupled ATPase assay); type: biochemical; conditions: microsomal preparations from HEK 293 cells, Vmax from Hill fit of ATPase calcium-dependence, relative to controls
T1 construct: microsomal preparations from HEK 293 cells; endogenous in cells; host or cells: HEK 293 cells (microsomal preparation)
T1 sequence (P16615 whole entry): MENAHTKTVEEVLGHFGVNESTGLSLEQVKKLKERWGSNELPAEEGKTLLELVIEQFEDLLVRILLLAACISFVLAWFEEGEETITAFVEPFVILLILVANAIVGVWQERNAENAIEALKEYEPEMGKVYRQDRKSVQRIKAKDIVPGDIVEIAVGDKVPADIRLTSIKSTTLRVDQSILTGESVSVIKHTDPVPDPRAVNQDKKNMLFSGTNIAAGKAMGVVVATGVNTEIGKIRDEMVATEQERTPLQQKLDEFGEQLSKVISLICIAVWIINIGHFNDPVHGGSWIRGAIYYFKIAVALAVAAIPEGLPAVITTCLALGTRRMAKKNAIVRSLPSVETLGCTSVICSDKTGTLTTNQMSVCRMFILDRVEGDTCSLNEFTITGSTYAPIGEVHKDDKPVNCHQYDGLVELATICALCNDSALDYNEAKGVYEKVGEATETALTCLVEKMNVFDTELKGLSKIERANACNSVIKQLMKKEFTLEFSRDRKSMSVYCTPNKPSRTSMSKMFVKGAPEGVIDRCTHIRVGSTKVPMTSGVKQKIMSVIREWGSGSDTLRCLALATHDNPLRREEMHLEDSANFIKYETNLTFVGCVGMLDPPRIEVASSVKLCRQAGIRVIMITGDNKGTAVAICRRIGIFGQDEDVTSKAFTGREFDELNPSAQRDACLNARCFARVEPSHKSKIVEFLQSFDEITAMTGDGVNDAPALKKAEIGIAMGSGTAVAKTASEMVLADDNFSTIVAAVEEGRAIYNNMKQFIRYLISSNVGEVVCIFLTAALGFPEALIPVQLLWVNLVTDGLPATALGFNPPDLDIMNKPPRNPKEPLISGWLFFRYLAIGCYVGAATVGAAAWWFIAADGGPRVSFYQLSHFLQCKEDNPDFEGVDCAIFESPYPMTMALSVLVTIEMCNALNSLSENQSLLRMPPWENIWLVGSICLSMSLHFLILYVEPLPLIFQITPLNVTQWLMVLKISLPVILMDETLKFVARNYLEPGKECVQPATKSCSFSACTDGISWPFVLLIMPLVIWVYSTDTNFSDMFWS
Description: A Ca-ATPase assay was performed using microsomal preparations from HEK 293 cells at a series of calcium concentrations corresponding to the physiological range, relative to controls. The ATP hydrolysis rate was measured over a range of calcium concentrations in the presence of test compounds using an NADH-linked, enzyme-coupled ATPase assay adapted for 96-well microplates, with Vmax determined by fitting the ATPase calcium-dependence to the Hill function. Each well contained 2 μg or 7 μg of SR vesicles (optimized for skeletal or cardiac SR, respectively), 50 mM MOPS (pH 7.0), 100 mM KCl, 5 mM MgCl2, 1 mM EGTA, 0.2 mM NADH, 1 mM phosphoenol pyruvate, 5 IU pyruvate kinase, 5 IU lactate dehydrogenase, and 3.5 μg/mL A23187 (a calcium ionophore). CaCl2 was added to set free [Ca^2+] to the specific values. The assay was started upon addition of ATP at a final concentration of 5 mM, and read in a SpectraMax Plus microplate spectrophotometer. The results are summarized in Table 4, where A represents an increase in SERCA Vmax greater than or equal to 50% and B represents a value greater than 10% and less than 50%.

Ob/ob mice = test: Effect of a SERCA agonist on the level of blood glucose; type: in vivo; conditions: Mus musculus, ip, 96 h, 50 mg/kg i.p. once a day for 5 days, fasting glucose at baseline and 4 days after administration, read-out: Glucose level reduction
Description: Ob/ob mice (10 weeks old, n=7) were intraperitoneally (i.p.) injected with 100 μL of a solution containing 0 (vehicle) or 50 mg/kg of a test compound once a day for a total of 5 days. Fasting glucose was measured at baseline and 4 days after the administration of the test compound. Glucose levels were measured in blood samples drawn from the tail vein using a handheld glucose sensor. Compound effects on blood glucose are shown in Table 5 where A represents a 10-20% reduction in blood glucose, B represents a 21-30% reduction in blood glucose, and C represents a greater than 30% reduction in blood glucose levels.

| SMILES | EC50 (CSM14.1 neuronal cells) [µM] | viability at 7.5 µM (Human SH-SY5Y cells) [%] | viability at 20 µM [1] [%] | SERCA Vmax Increase (SERCA) | inhibition in vivo at 50 mg/kg (Ob/ob mice) [%] |
| --- | --- | --- | --- | --- | --- |
| Cc1ccc2cccc(NCc3ccc(OC(C)C)cc3)c2n1 [C1, N-(4-Isopropoxybenzyl)-2-methylquinolin-8-amine] | < 10 | > 40 | > 50 | B (B represents a value greater than 10% and less than 50%) | > 30 |
| Cc1ccc2cccc(NCc3cc(Br)cs3)c2n1 [C2, N-((4-Bromothiophen-2-yl)methyl)-2-methylquinolin-8-amine] | < 10 | 10 to 40 | 10 to 50 | B (B represents a value greater than 10% and less than 50%) | 21 to 30 |
| Cc1ccc2cccc(NCc3ccc(Br)s3)c2n1 [C3, N-((5-Bromothiophen-2-yl)methyl)-2-methylquinolin-8-amine] | < 10 | > 40 | > 50 | B (B represents a value greater than 10% and less than 50%) | 21 to 30 |
| Cc1ccc2cccc(NCc3ccc(Cl)cc3)c2n1 [C4, N-(4-Chlorobenzyl)-2-methylquinolin-8-amine] | < 10 | > 40 | > 50 | A (A represents an increase in SERCA Vmax greater than or equal to 50%) | 10 to 20 |
| COc1c(C)cccc1CNc1cccc2ccc(C)nc12 [C5, N-(2-Methoxy-3-methyl)-2-methylquinolin-8-amine] | 10 to 20 | 1 to 10 | 10 to 50 | A (A represents an increase in SERCA Vmax greater than or equal to 50%) | 21 to 30 |
| Cc1ccc2cccc(NCc3ccc(C(F)(F)F)cc3)c2n1 [C6, N-(4-Trifluoromethylbenzyl)-2-methylquinolin-8-amine] | < 10 | > 40 | > 50 | B (B represents a value greater than 10% and less than 50%) | 10 to 20 |
| Cc1ccc2cccc(NCc3ccc(C#N)cc3)c2n1 [C7, N-(4-Cyanobenzyl)-2-methylquinolin-8-amine] | 10 to 20 | 10 to 40 | < 10 | B (B represents a value greater than 10% and less than 50%) | 10 to 20 |
| Cc1ccc2cccc(NCc3ccc(C)s3)c2n1 [C8, N-((5-Methylthiophen-2-yl)methyl)-2-methylquinolin-8-amine] | < 10 | > 40 | 10 to 50 | B (B represents a value greater than 10% and less than 50%) | > 30 |
| Cc1ccc2cccc(NCc3ccc(C)o3)c2n1 [C9, N-((5-Methylfuran-2-yl)methyl)-2-methylquinolin-8-amine] | 10 to 20 | 1 to 10 | < 10 | B (B represents a value greater than 10% and less than 50%) | 21 to 30 |
| Cc1ccc2cccc(NCc3cc4ccccc4s3)c2n1 [C10, N-(Benzo[b]thiophen-2-ylmethyl)-2-methylquinolin-8-amine] | 10 to 20 | 10 to 40 | 10 to 50 | B (B represents a value greater than 10% and less than 50%) | 21 to 30 |
